Experiment [1] relates to A2780 ovarian cancer cells. The experiment is described as follows: MTT cytotoxicity test on A2780 ovarian cancer cells. It counts as cell-based. Particulars: A2780 ovarian cancer cell line, 72 hours incubation. On the procedure: (§1) The biological (cytotoxicity) properties of the complexes synthesized above were tested on A2780 and A2780cisR (cisplatin-resistant) ovarian cancer cells according to a conventional procedure described below, and the IC50 values obtained were compared with those obtained under the same conditions with the cisplatin complex Pt (NH3)2Cl2.
(§2) The A2780 and A2780cisR ovarian cancer cell lines were obtained from The European Collection of Cell Cultures (ECACC) (Salisbury, UK). The cells were cultured in RPMI medium comprising glucose, 5% of fetal calf serum (FCS) and antibiotics, at 37° C. and 5% CO2.
(§3) The cytotoxicity was determined using the MTT (3-(4,5-dimethyl-2-thiazolyl)-2,5-diphenyl-2H-tetrazolium bromide) test (MOSMANN, 1983).
(§4) The cells were distributed in 96-well plates, as monolayers, with 100 μl of solution (approximately 20 000 cells) per well, and were preincubated for 24 hours in a medium supplemented with 10% of FCS.
(§5) The compounds were prepared in DMSO solution, were then dissolved in the culture medium and were successively diluted to the appropriate concentration, in order to obtain a final DMSO concentration of 0.5%. 100 μl of solution of these compounds were added to each well and the plates were incubated for 72 hours. Subsequently, MTT (5 mg/ml) was added to the cells and the plates were incubated for 2 hours. The culture medium was removed by suction and the purple formazan crystals formed by the mitochondrial dehydrogenase activity of the living cells were dissolved in DMSO.
(§6) The optical density, which is directly proportional to the number of living cells, was quantified at 540 nm using a multiwell plate reader and the fraction of living cells was quantified from the absorbance of untreated control cells. Evaluation was carried out from two independent experiments, each comprising 3 microcultures per concentration level.

For experiment [2], the system named is A2780cisR (cisplatin-resistant) ovarian cancer cells. The experiment can be described thus: MTT cytotoxicity test on A2780cisR (cisplatin-resistant) ovarian cancer cells. Particulars: A2780cisR (cisplatin-resistant) cell line, 72 hours incubation. Format: cell-based. On the procedure: as §1, §2, §3, §4, §5, §6

A value given as a limit tells only on which side of the number the result lay.

The results in this text go back to patent publication US8367723B2, “Selenoquinone-derived active organometallic complexes, methods for synthesizing same, and uses thereof” (Centre National de la Recherche Scientifique—CNRS, priority 2009, dated 2013).

In the case of “p-[(C5Me5)Ir(η^4-dithiobenzoquinone)] [compound 6]”, the half-inhibitory concentration (IC50) in experiment [1] was 154 µM. Same read-out and setting: the value for “o-[(C5Me5)Rh(η^4-benzoquinone)] [compound 1]” was > 400 µM; that for “p-[(C5Me5)Ir(η^4-diselenobenzoquinone)] [compound 8]” was 5 µM. In the case of “p-[(C5Me5)Ir(η^4-2,5-dimethyldiselenobenzoquinone)] [compound 10]”, the values for the 50% inhibitory concentration (IC50) in experiment [2] and in experiment [1] were 7.3 µM and 6.2 µM, respectively. Regarding “o-[(C5Me5)Ir(η^4-benzoquinone)] [compound 3]”, in experiment [1], the concentration for half-maximal inhibition (IC50) is > 400 µM.

As for “p-[(C5Me5)Ir(η^4-benzoquinone)] [compound 4]”, it took 93 µM to reach half-maximal inhibition in experiment [1] (IC50). Consider `N.N.[Cl][Pt][Cl]` [cis-[Pt(NH3)2Cl2], cis-diamminedichloroplatinum(II)], for which the figures for the half-inhibitory concentration (IC50) in experiment [2] and in experiment [1] were 25 µM and 3 µM, respectively. In the case of “p-[(C5Me5)Rh(η^4-benzoquinone)] [compound 2]”, in experiment [1], the 50% inhibitory concentration (IC50) was > 400 µM. Regarding “p-[(C5Me5)Ir(η^4-monoselenobenzoquinone)] [compound 9]”, the IC50 in experiment [2] was determined as 8.4 µM; in experiment [1] it was 12.3 µM.

Turning to “o-[(C5Me5)Ir(η^4-dithiobenzoquinone)] [compound 5]”, in experiment [1], the half-maximal inhibitory concentration (IC50) came to 49 µM.
